# Assay results taken from US10940159B2, “Combination immediate/delayed release delivery system for short half-life pharmaceuticals including remogliflozin” (priority 2010, dated 2021).
# Like-named read-outs stand apart in the source and are kept apart here.
# Assays:
# [1] = Half-life, absorption window and permeability; type: in vivo; conditions: for half-life: human
# [2] = 12 week clinical studies in T2DM, once daily and twice daily dosing; type: in vivo, human
# Text: To date, studies have assessed the efficacy, safety and tolerability up to 12 weeks, with varying efficacy so there is a need to characterize the profile of a number of selected formulated doses over a 12-week period. […] However to minimize the time which subjects may have sub-optimal glycemic control, the double blind study medication has been limited to 12 weeks duration. In addition, criteria have been included to allow the introduction of rescue therapy after 6 weeks for those subjects who have a high FP. […] Furthermore, there is evidence that at these doses, there may also be clinically relevant weight loss, a key requirement for new T2DM therapies (20). As doses above 250 mg BID may be associated with relatively small incremental benefits on glycemia and weight loss and there is a trend for better tolerability at lower doses, future studies could have total daily doses less than 500 mg per day. […] It is believed that the primary mechanism for this isolated increase in LDL-c is due a combination of 1) hemoconcentration as a result of the diurectic effect, similar to that seen with diuretics (21, 22) and 2) SGLT2 overnight inhibition. […] Further, a combination IR/SR dose given QD in the morning may also provide meaningful benefits on glycemia and weight loss. From a safety perspective, other than small effects observed on the lipid profile and hematocrit, there was little difference in the safety profile based on the frequency of administration.
# [3] = reduced from 9.0%; at mealtime in combination with a sulfonylurea; P<0.0001; cited from earlier work
"half-life ([1]; in vivo, read-out: half-life) [h]","half-life ([1]; plasma, read-out: half-life (t½) (converted)) [h]",permeability in the lower portion of the gastrointestinal tract ([1]; in vivo),"window of absorption ([1]; upper gastrointestinal tract, depending upon food intake, individual differences) [h]",LDL-c ([2]; 250 mg and 500 mg bid doses),LDL-c ([2]; higher QD doses),hematocrit (surrogate marker for hemoconcentration) ([2]; higher QD doses),"hypoglycemic events ([2]; human, in vivo)","half-life ([1]; in vivo, read-out: half-life (t½) (converted)) [h]",Compound,A1C levels [3] [%]
1.5 to 2,1.5,poor permeability,3 to 6,significant increases,no corresponding increases,increases in hematocrit,very little evidence,,Cc1c(Cc2ccc(OC(C)C)cc2)c(O[C@@H]2O[C@H](CO)[C@@H](O)[C@H](O)[C@H]2O)nn1C(C)C [remogliflozin],
,,intrinsically poor permeability,,,,,,1.5,"CCOC(=O)OC[C@H]1O[C@@H](Oc2nn(C(C)C)c(C)c2Cc2ccc(OC(C)C)cc2)[C@H](O)[C@@H](O)[C@@H]1O [remogliflozin etabonate, 5-methyl-4-[4-(1-methylethoxy)benzyl]-1-(1-methylethyl)-1H-pyrazol-3-yl 6-O-(ethoxycarbonyl)-β-D-glucopyranoside]",
,,,,,,,,,insulin lispro: rapid-acting insulin analog,7.1
